Here are results for eleven compounds from patent US20240246935A1 (Plexium, Inc., priority 2021, published 2024).

One assay deals with IKZF3 (Aiolos). Nature of the assay: IKZF3 reporter degradation assay (HEK 293T IKZF3-mNeonGreen reporter cell line). Conditions: HEK 293T IKZF3 reporter cells, 24 hour incubation. The assay is classed as cell-based, human. The source says:
(§1) Polycistronic plasmids were constructed for the mammalian expression of fluorescent reporter fusions of human transcription factors IKZF1 (Ikaros), IKZF2 (Helios), and IKZF3 (Aiolos). The respective protein sequences had their C-terminal end joined to a GGGGS linker repeated three times followed by mNeonGreen, P2A sequence, and mScarlet. The DNA sequences of the open reading frames are as follows:
(§2) IKZF1, IKZF2, and IKZF3 constructs were cloned into the UCOE Hygromycin expression vectors (Millipore Sigma). Reporter constructs were transfected using cationic lipid reagents into adherent HEK 293T cells and stable integrants were selected by treatment with 200 μg/mL hygromycin B. Clonal populations were obtained from the population of stable integrants either by limiting dilution or fluorescence activated cell sorting.
(§3) The clonal stable cell lines were maintained under constant 200 μg/mL hygromycin B selection while being passaged for use in the degradation assays. […] The fluorescence intensity of the IKZF1/2/3-mNeonGreen (FITC channel) and mScarlet (PE channel) reporters were routinely analyzed by flow cytometry to confirm consistent expression levels between experiments.
(§4) The IKZF1/IKZF2/IKZF3 degradation assays were carried out by harvesting the HEK 293T reporter cell lines and resuspending the cells in media formulated for reduced background fluorescence (FluoroBrite; Thermo Fisher). The respective cell lines were seeded at a density of 4000 cells/well into black-walled 384-well optical grade assay tissue culture plates. The cells were incubated overnight at 37° C. to allow for attachment to the assay plate. Dilutions of the compounds were prepared in DMSO from 10 mM compound stocks. The assay plates were treated with appropriate concentrations of the compounds by dispensing the DMSO dilutions in quadruplicate wells with an upper limit of 0.5% final DMSO.
(§5) After 24 hour incubation with the compounds, the assay plates were imaged on an ImageXpress Pico microscopy system (cells maintained at 37° C. during imaging) to obtain the fluorescent readouts. The assay plates were imaged in the FITC and Tetramethylrhodamine (TRITC) channels to obtain the mNeonGreen fluorescence intensity (reporter degradation data) and mScarlet fluorescence intensity (for cell segmentation). 293T-IKZF1 and 293T-IKZF3 reporter cell lines were imaged with exposures of 500 milliseconds (ms) for both FITC and TRITC channels, while the 293T-IKZF2 reporter cell line was imaged with exposures of 1000 ms for FITC and 1250 ms for TRITC. The resulting data was analyzed with Cell Reporter Xpress software using the 2-channel cell scoring analysis with a “percent positive” readout. The TRITC channel was selected for the “nuclei” segmentation with a threshold of 20 while the FITC channel was selected for the “Marker 1” segmentation and a threshold of 100 for the IKZF1 and IKZF3 reporter lines. […] The minimum segmentation width was set to 6 micrometers and the maximum segmentation width was set to 15 micrometers for all cell lines. The DCs calculations were determined by regression to best fit four-parameter logistic curves using GraphPad Prism.

The subject of another assay is IKZF1 (Ikaros). In words: IKZF1 reporter degradation assay (HEK 293T IKZF1-mNeonGreen reporter cell line). The assay is classed as cell-based, human. The settings on record: HEK 293T IKZF1 reporter cells, 24 hour incubation.
Source text: as §1, §2, §3, §4, §5

A further assay concerns IKZF2 (Helios). In words: IKZF2 reporter degradation assay (HEK 293T IKZF2-mNeonGreen reporter cell line). The assay is classed as cell-based, human. Conditions: 24 hour incubation; for IKZF2 % Degradation @ 1 μM: 1 μM compound. An outline of the steps: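 HEK 293T lines stably expressing each IKZF-GGGGS×3-mNeonGreen-P2A-mScarlet reporter, 4000 cells/well in FluoroBrite medium, treated with compound (≤0.5% DMSO) for 24 h at 37 °C. Imaging measured percent mNeonGreen-positive cells, with mScarlet used for segmentation; DC50 from four-parameter logistic fit.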

For another assay, the target named is GSPT1 (Homo sapiens (Human), UniProt P15170+Q96SW2). In words: GSPT1 reporter degradation assay (HEK293 hGSPT1 HiBiT-tagged cells). The class given is cell-based. The settings on record: 24 hour incubation. The protocol: HEK293_hGSPT1_HiBiT-tagged cells were generated using CRISPR-Cas12a technology. Briefly, ˜400,000 HEK293 cells were transiently co-transfected with precomplexed ribonuclear proteins (RNPs) consisting of 80 pmol of crRNA (IDT), 62 pmol of Cas12a protein (IDT), 3 μg of ssODN donor (IDT; AltR® modifications), 78 pmol of electroporation enhancer (IDT), and 200 ng of pMaxGFP (Lonza). The transfection was performed via nucleofection (Lonza, 4D-Nucleofector X-unit) using solution P3 and program CM-130 in a (20 μL) cuvette. Five days post-nucleofection, cells were single-cell-sorted for GFP+(transfected) cells by FACs in 96-well plates and clonally selected. Clones were screened and verified for the desired modification via targeted deep sequencing using gene-specific primers with partial Illumina adapter overhangs as previously described. In brief, clonal cell pellets were harvested, lysed, and used to generate gene-specific amplicons with partial Illumina adapters in PCR #1. Amplicons were indexed in PCR #2 and pooled with other targeted amplicons for other loci to create sequence diversity. Additionally, 10% PhiX sequencing control V3 (Illumina) was added to the pooled amplicon library prior to running the sample on a Miseq Sequencer System (Illumina) to generate paired 2×250 bp reads. Samples were demultiplexed using the index sequences, fastq files were generated, and NGS analysis was performed using CRIS.py. Final clones were authenticated using the PowerPlex fusion system (Promega) and tested negative for mycoplasma by the MycoAlert™Plus mycoplasma detection kit (Lonza).
Editing construct sequences and screening primers are outlined below (sequence from 5′ to 3′). hGSPT1Cas12acrRNA, CAGE635.GSPT1.g1: […] (SEQ ID NO: 4); CAGE635.g1.anti.ssODN: ttcctcacagtattgtgcagggtcatcaagaaaatgctta[…] CAGCCGCTCACgtcCttctctggaaccagtttcagaacttttccaattgcaatggtcttacctagaaatgaaattttaa (HiBiT tag and silent blocking modifications to prevent Cas12a recutting after integration are in upper case) (SEQ ID NO: 5); CAGE635.hGSPT1.DS.F: […] (SEQ ID NO: 6); CAGE635.hGSPT1.DS.R: GTGAA GTAGGCTTCTGCAGTC (SEQ ID NO: 7).
The GSPT1 degradation assay was carried out by harvesting the HEK 293T reporter cell lines and resuspending the cells in media formulated for reduced background fluorescence (FluoroBrite; Thermo Fisher). The respective cell lines were seeded at a density of 8,000 cells/well into white-opaque 384-well optical grade assay tissue culture plates (Greiner 781080-20). The cells were incubated overnight at 37° C. to allow for attachment to the assay plate. Dilutions of the compounds were prepared in DMSO from 10 mM compound stocks. Test compounds were added in a 10-point dilution series (typically 10 μM to […]) using a TECAN D300e Digital Dispenser with an upper limit of 0.5% final DMSO. Plates were centrifuged at 320×g for 2 minutes at room temperature, and subsequently incubated at 37° C.
After 24 hour incubation with the compounds, the plates were allowed to cool to room temperature for 10 minutes. 30 μL of HiBiT lytic buffer+1:50 HiBiT substrate Solution were added to each well. Plates were centrifuged at 320×g for 2 minutes at room temperature and then incubated with shaking at room temperature for 10 minutes covered with foil. Plates were read on a CLARIOstar microplate reader (BMG LabTech), measuring at 450 nm (donor emission) and 610 nm or 630 nm (acceptor emission). The DC50 values were determined by regression to best fit four-parameter logistic curves using GraphPad Prism.
In general terms: The HiBiT peptide binds its large partner to form an active luciferase.

Chain of GSPT1 (P15170 whole entry): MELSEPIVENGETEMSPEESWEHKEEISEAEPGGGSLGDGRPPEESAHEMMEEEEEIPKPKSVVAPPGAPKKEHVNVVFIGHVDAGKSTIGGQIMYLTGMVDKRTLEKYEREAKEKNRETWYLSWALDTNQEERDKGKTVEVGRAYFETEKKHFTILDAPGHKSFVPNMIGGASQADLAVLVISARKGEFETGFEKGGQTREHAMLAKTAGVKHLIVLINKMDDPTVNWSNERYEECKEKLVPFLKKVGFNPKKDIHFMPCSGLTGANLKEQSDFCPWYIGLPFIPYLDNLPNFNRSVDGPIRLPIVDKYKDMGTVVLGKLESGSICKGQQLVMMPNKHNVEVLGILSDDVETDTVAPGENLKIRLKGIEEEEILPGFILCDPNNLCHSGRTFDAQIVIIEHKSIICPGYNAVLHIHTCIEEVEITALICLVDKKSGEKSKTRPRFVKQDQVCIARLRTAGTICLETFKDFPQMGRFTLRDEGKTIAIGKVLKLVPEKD
Chain of GSPT1 (Q96SW2 whole entry): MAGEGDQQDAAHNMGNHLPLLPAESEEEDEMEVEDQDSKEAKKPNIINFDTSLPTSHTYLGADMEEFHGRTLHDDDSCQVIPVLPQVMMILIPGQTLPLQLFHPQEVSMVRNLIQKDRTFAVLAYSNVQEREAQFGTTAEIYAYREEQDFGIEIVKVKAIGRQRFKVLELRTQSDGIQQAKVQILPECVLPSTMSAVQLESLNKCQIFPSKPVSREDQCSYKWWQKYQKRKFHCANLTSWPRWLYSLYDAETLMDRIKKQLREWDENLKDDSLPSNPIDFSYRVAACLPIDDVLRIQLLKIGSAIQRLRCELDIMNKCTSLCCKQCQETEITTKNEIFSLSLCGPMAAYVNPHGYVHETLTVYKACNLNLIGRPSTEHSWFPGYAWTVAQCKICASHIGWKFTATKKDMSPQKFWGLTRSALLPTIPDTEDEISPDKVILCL
Chain of GSPT1 (Q16531 whole entry partner): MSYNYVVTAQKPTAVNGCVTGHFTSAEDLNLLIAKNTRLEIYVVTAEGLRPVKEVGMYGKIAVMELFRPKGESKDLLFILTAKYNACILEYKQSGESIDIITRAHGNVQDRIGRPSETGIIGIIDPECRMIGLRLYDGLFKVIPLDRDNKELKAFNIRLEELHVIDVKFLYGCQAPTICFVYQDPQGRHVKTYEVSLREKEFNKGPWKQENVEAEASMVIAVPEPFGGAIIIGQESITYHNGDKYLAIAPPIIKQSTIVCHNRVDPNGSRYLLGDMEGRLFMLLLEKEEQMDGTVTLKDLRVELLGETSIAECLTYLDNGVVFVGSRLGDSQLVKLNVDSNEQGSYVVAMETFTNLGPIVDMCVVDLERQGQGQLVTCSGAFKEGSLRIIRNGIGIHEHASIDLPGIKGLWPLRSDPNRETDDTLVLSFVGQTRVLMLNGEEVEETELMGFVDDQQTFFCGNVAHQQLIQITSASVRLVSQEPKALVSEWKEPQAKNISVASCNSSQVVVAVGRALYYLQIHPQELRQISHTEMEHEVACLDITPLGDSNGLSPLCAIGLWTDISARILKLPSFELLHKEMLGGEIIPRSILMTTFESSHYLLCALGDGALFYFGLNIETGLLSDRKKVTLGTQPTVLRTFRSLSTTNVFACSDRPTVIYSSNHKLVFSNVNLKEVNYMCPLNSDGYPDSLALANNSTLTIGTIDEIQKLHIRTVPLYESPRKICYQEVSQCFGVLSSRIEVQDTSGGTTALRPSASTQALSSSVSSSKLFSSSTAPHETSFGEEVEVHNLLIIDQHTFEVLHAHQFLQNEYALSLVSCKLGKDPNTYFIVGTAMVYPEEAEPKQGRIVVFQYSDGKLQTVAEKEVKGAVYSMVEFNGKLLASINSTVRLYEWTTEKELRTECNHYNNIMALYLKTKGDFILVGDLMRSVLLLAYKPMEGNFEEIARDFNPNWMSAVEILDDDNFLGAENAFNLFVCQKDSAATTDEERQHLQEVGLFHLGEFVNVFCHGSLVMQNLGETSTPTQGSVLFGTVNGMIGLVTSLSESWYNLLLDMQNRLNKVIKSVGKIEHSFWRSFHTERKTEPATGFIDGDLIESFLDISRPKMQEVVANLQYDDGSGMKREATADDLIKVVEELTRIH

By DC50 is commonly meant the concentration giving 50% degradation. High values mean a less potent degrader, low ones a more potent degrader. Take `O=C1CCC(N2Cc3cc(O[C@H]4CCCC[C@@H]4N4CC(c5ccccc5F)C4)ccc3C2=O)C(=O)N1` (stereo in doubt) [Compound 27]: the DC50 is > 30 µM in the assay on IKZF3 (Aiolos), > 30 µM in the assay with IKZF1 (Ikaros) and 5 nM in the assay on IKZF2 (Helios) (HEK 293T IKZF2 reporter cells). Besides, the “IKZF2 % Degradation @ 1 μM” value in the assay on IKZF2 (Helios) (HEK 293T IKZF2 reporter cells) worked out at 82.1%.

For the compound `O=C1CCC(N2Cc3cc(O[C@H]4CCCC[C@@H]4N4CCC(c5ccccc5)C4)ccc3C2=O)C(=O)N1` (stereo partly drawn) [Compound 1, 3-(1-oxo-5-(((1S,2S)-2-(3-phenylpyrrolidin-1-yl)cyclohexyl)oxy)isoindolin-2-yl)piperidine-2,6-dione], the DC50 was > 30 µM with IKZF3 (Aiolos), > 30 µM in the assay on IKZF1 (Ikaros), > 30 µM on GSPT1 and 24 nM in the assay on IKZF2 (Helios) (HEK 293T IKZF2 reporter cells). The “IKZF2 % Degradation @ 1 μM” value in the assay on IKZF2 (Helios) (HEK 293T IKZF2 reporter cells) came to 79.9%.

Turning to `O=C1CC[C@H](N2Cc3cc(O[C@H]4CCCC[C@@H]4N4CC(c5ccccc5)C4)ccc3C2=O)C(=O)N1` [Compound 10, (S)-3-(1-oxo-5-(((1S,2S)-2-(3-phenylazetidin-1-yl)cyclohexyl)oxy)isoindolin-2-yl)piperidine-2,6-dione], the DC50 with IKZF3 (Aiolos) is > 30 µM; with IKZF1 (Ikaros), > 30 µM; at GSPT1, > 30 µM; with IKZF2 (Helios) (HEK 293T IKZF2 reporter cells) it was 6 nM. Besides, in the assay with IKZF2 (Helios) (HEK 293T IKZF2 reporter cells), the “IKZF2 % Degradation @ 1 μM” value came out at 78.7%.

On to `O=C1CCC(N2Cc3cc(O[C@@H]4CCCC[C@H]4N4CC(c5ccccc5)C4)ccc3C2=O)C(=O)N1` (stereo partly drawn) [Compound 11, 3-(1-oxo-5-(((1R,2R)-2-(3-phenylazetidin-1-yl)cyclohexyl)oxy)isoindolin-2-yl)piperidine-2,6-dione], for which the values for the DC50 in the assay on IKZF3 (Aiolos), in the assay with IKZF1 (Ikaros) and with IKZF2 (Helios) (HEK 293T IKZF2 reporter cells) were > 30 µM, > 30 µM and > 30000 nM, respectively.

Take `O=C1CCC(N2Cc3cc(O[C@@H]4CCCC[C@@H]4N4CC(c5ccccc5)C4)ccc3C2=O)C(=O)N1` (stereo partly drawn) [Compound 13, 3-(1-oxo-5-(((1R,2S)-2-(3-phenylazetidin-1-yl)cyclohexyl)oxy)isoindolin-2-yl)piperidine-2,6-dione]: the DC50 in the assay with IKZF3 (Aiolos) was > 30 µM; in the assay on IKZF1 (Ikaros), > 30 µM; in the assay on IKZF2 (Helios) (HEK 293T IKZF2 reporter cells), > 30000 nM.

Take `O=C1CC[C@H](N2Cc3cc(O[C@@H]4CCCC[C@H]4N4CC(c5ccccc5)C4)ccc3C2=O)C(=O)N1` [Compound 14, (S)-3-(1-oxo-5-(((1R,2R)-2-(3-phenylazetidin-1-yl)cyclohexyl)oxy)isoindolin-2-yl)piperidine-2,6-dione]: the DC50 with IKZF3 (Aiolos) was > 30 µM; in the assay on IKZF1 (Ikaros), > 30 µM; with IKZF2 (Helios) (HEK 293T IKZF2 reporter cells), 292 nM. For the same compound, the “IKZF2 % Degradation @ 1 μM” value with IKZF2 (Helios) (HEK 293T IKZF2 reporter cells) was found to be 33.5%.

`O=C1CCC(N2Cc3cc(O[C@H]4CCCC[C@@H]4N4CC(c5ccccc5Cl)C4)ccc3C2=O)C(=O)N1` (stereo partly drawn) [Compound 15, 3-(5-(((1S,2S)-2-(3-(2-chlorophenyl)azetidin-1-yl)cyclohexyl)oxy)-1-oxoisoindolin-2-yl)piperidine-2,6-dione]: the DC50 was > 30 µM in the assay on IKZF3 (Aiolos), > 30 µM in the assay on IKZF1 (Ikaros) and 4 nM in the assay with IKZF2 (Helios) (HEK 293T IKZF2 reporter cells). Moreover, in the assay on IKZF2 (Helios) (HEK 293T IKZF2 reporter cells), the “IKZF2 % Degradation @ 1 μM” value was 78.9%.

Turning to `COc1ccccc1C1CN([C@H]2CCCC[C@@H]2Oc2ccc3c(c2)CN(C2CCC(=O)NC2=O)C3=O)C1` (stereo partly drawn) [Compound 19, 3-(5-(((1S,2S)-2-(3-(2-methoxyphenyl)azetidin-1-yl)cyclohexyl)oxy)-1-oxoisoindolin-2-yl)piperidine-2,6-dione], the DC50 in the assay on IKZF3 (Aiolos) was > 30 µM; in the assay on IKZF1 (Ikaros) it was > 30 µM; in the assay on IKZF2 (Helios) (HEK 293T IKZF2 reporter cells) it was 4 nM. The “IKZF2 % Degradation @ 1 μM” value with IKZF2 (Helios) (HEK 293T IKZF2 reporter cells) was determined as 84.5%.

With `O=C1CCC(N2Cc3cc(O[C@H]4CCCC[C@@H]4N4CC(c5ccc(F)c(F)c5)C4)ccc3C2=O)C(=O)N1` (stereo partly drawn) [Compound 23, 3-(5-(((1S,2S)-2-(3-(3,4-difluorophenyl)azetidin-1-yl)cyclohexyl)oxy)-1-oxoisoindolin-2-yl)piperidine-2,6-dione], the DC50 with IKZF3 (Aiolos) is > 30 µM; in the assay with IKZF1 (Ikaros), > 30 µM; at GSPT1 it was > 30 µM; with IKZF2 (Helios) (HEK 293T IKZF2 reporter cells) it was 5 nM. For the same compound, the “IKZF2 % Degradation @ 1 μM” value with IKZF2 (Helios) (HEK 293T IKZF2 reporter cells) was determined as 79.2%.

Regarding `O=C1CCC(N2Cc3cc(O[C@H]4CCCC[C@@H]4N4CC(c5ccc(-n6cccn6)cc5)C4)ccc3C2=O)C(=O)N1` (stereo partly drawn) [Compound 31, 3-(5-(((1S,2S)-2-(3-(4-(1H-pyrazol-1-yl)phenyl)azetidin-1-yl)cyclohexyl)oxy)-1-oxoisoindolin-2-yl)piperidine-2,6-dione], the figures for the DC50 with IKZF3 (Aiolos), with IKZF1 (Ikaros) and in the assay on IKZF2 (Helios) (HEK 293T IKZF2 reporter cells) were > 30 µM, > 30 µM and 0.5 nM, respectively. For the same compound, the “IKZF2 % Degradation @ 1 μM” value in the assay on IKZF2 (Helios) (HEK 293T IKZF2 reporter cells) was found to be 83.3%.

As to `O=C1CCC(N2Cc3cc(O[C@H]4CCCC[C@@H]4N4CC(c5ccccc5)C4)ccc3C2=O)C(=O)N1` (stereo partly drawn) [Compound 127, 3-(1-oxo-5-(((1S,2S)-2-(3-phenylazetidin-1-yl)cyclohexyl)oxy)isoindolin-2-yl)piperidine-2,6-dione], the DC50 at GSPT1 was > 30 µM. In the assay on IKZF2 (Helios) (HEK 293T IKZF2-mNeonGreen reporter), the “IKZF2 % Degradation @ 1 μM” value turned out to be 77.9%.
